In patent US12146177B2, “Methods of making and using E,Z,E-geranylgeranyl diphosphate” (WiSys Technology Foundation, Inc., priority 2020, dated 2024):

Test system: Escherichia coli C41
Format: cell-based
Conditions: compound itself not applied to cells

## CC(C)=CCC/C(C)=C/CC/C(C)=C\CC/C(C)=C/COP(=O)(O)OP(=O)(O)O [E,Z,E-GGPP, E,Z,E-Geranylgeranyl pyrophosphate]
  bactericidal effect on E. coli: bactericidal agent
